Key:
[1] = target: T1, human TGR5 (Homo sapiens, UniProt Q8TDU6); assay: cAMP Responsive Element (CRE)-Reporter Assay; assay type: cell-based; settings: luciferase activity relative to vehicle control, five hours, CHO cells transfected with human TGR5 and CRE-luciferase
T1 construct: host or cells: CHO cells (ATCC)
T1 sequence (Q8TDU6 1-330): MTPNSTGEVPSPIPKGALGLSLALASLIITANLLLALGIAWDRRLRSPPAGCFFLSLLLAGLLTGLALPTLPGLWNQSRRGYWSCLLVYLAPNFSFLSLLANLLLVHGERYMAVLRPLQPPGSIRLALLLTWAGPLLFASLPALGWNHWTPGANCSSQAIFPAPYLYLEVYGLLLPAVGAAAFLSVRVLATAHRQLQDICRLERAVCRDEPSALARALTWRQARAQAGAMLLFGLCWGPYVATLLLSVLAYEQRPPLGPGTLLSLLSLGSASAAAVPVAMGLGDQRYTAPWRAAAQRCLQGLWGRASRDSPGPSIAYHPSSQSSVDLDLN
Protocol: (A) cAMP Responsive Element (CRE)-Reporter Assay:
CHO cells (ATCC) were transfected with human TGR5 (oriGene) and CRE-luciferase reporter vector. Transfected cells were treated with vehicle control or test compounds (Conc 10 μM) for five hours and then lysed. Cell lysates were monitored for luciferase acivity. Increase in luciferase activity is considered as a result of TGR5 activation. Results were expressed as fold induction as compared to vehicle control.
Results are summarized in Table 2 where, + indicates 1.5-2 fold while ++, +++, ++++ indicate 2-3 fold, 3-4 fold, and >4 fold induction respectively relative to vehicle control when tested at 10 μM concentration.

[2] = tested on: Diabetic Hamster; assay: Single dose efficacy on glucose tolerance (OGTT) in diabetic hamster; assay type: in vivo; settings: Mesocricetus auratus, read-out: Decrease in AUC of glucose % change w.r.t. vehicle control group; for inhibition in vivo at 36 mg/kg: single oral dose 36 mg/kg; for inhibition in vivo at 41 mg/kg: single oral dose 41 mg/kg
Protocol: i) Evaluation of Single Dose Efficacy of Test Compounds on Glucose Tolerance:
Thus efficacy can be assessed through the effect of test compounds on lowering of plasma glucose during OGTT through stimulating glucose stimulated insulin secretion.
The potential of test compounds in lowering of Plasma Glucose was evaluated in Oral glucose tolerance test (OGTT) in Diabetic Hamster Model, where diabetes has been induced by administration of low dose of Streptozotocin (STZ) to the High fat diet (HFD) fed glucose intolerant animals. The diabetic hamsters show impaired glucose stimulated insulin secretion and higher plasma glucose excursions than the normal animals, which remains elevated beyond 2 hrs post glucose load. Thus the animal model can be used for evaluating the potential of test compounds to lower plasma glucose through stimulating glucose stimulated insulin secretion. On the day of study post 6 hrs of fasting, test compounds or vehicle was administered orally at dose volume of 2 ml/kg to the hamsters of the respective treatment groups. Subsequent to dosing, a pre-glucose load blood sample was taken. A glucose load of 40% solution at 5 ml/Kg dose volume was administered orally. Blood samples through retroorbital plexus were taken at 15, 30 60 & 120 min. post glucose load and plasma was separated for glucose measurement. Post glucose load percentage change in plasma glucose and AUC of % change glucose by the treatment was assessed.

[3] = target: T1, human TGR5; assay: cAMP Measurement Assay (Alphascreen); assay type: cell-based; settings: cAMP levels, CHO cells transfected with human TGR5, one hour
Protocol: (B) cAMP Measurement Assay:
CHO cells (ATCC) were transfected with human TGR5 vector (oriGene). Transfected cells were treated with vehicle control or test compounds for one hour and then lysed. Levels of cAMP were measured in cell lysates employing Alphascreen cAMP assay kit (Perkin Elmer) and results were expressed EC50 values which are summarized in Table 3.

[4] = tested on: Human enteroendocrine cell-line (NCI-H716); assay: Measurement of Glucagon Like Peptide-1 (GLP-1) secretion; assay type: cell-based; settings: NCI-H716 cells, one hour, with respect to vehicle control
Protocol: (C) Measurement of Glucagon Like Peptide-1 (GLP-1):
Human enteroendocrine cell-line (NCI-H716) were incubated with vehicle or test compounds for one hour. At the end of incubation period, levels of secreted GLP-1 in culture medium were measured by GLP-1 ELISA kit (Millipore). Results are summarized as fold increase in GLP secretion with respect to vehicle control in Table 4.

Row | SMILES | fold induction at 10 µM [1] | other results
1 | CN(C(=O)c1c(-c2ccccc2)nc2ncccn12)c1ccc(Cl)cc1 [Compound no. 1, N-(4-chlorophenyl)-N-methyl-2-phenylimidazo[1,2-a]pyrimidine-3-carboxamide] | > 4 | inhibition in vivo at 36 mg/kg [2]: 33%; EC50 [3]: 35 nM
2 | CN(C(=O)c1c(Oc2ccccc2)nc2ncccn12)c1ccc(Cl)cc1 [compound 47, N-(4-chlorophenyl)-N-methyl-2-phenoxyimidazo[1,2-a]pyrimidine-3-carboxamide] | 3 to 4 | 
3 | CN(C(=O)c1c(Oc2ccc(Cl)cc2)nc2ncccn12)c1ccc(Cl)cc1 [compound 48, 2-(4-chlorophenoxy)-N-(4-chlorophenyl)-N-methylimidazo[1,2-a]pyrimidine-3-carboxamide] | 2 to 3 | 
4 | COc1ccc(Oc2nc3ncccn3c2C(=O)N(C)c2ccc(Cl)cc2)cc1 [compound 49, N-(4-chlorophenyl)-2-(4-methoxyphenoxy)-N-methylimidazo[1,2-a]pyrimidine-3-carboxamide] | 3 to 4 | 
5 | CN(C(=O)c1c(Oc2ccc(Cl)cc2)nc2ncccn12)c1ccc(F)cc1 [compound 51, 2-(4-chlorophenoxy)-N-(4-fluorophenyl)-N-methylimidazo[1,2-a]pyrimidine-3-carboxamide] | 2 to 3 | 
6 | COc1ccc(N(C)C(=O)c2c(Oc3ccc(F)cc3)nc3ncccn23)cc1 [compound 52, 2-(4-fluorophenoxy)-N-(4-methoxyphenyl)-N-methylimidazo[1,2-a]pyrimidine-3-carboxamide] | 3 to 4 | 
7 | O=C(c1c(-c2ccc(F)cc2)nc2ncccn12)N(c1ccc(Cl)cc1)C1CC1 [compound 136, N-(4-chlorophenyl)-N-cyclopropyl-2-(4-fluorophenyl)imidazo[1,2-a]pyrimidine-3-carboxamide] | 3 to 4 | 

Now from value to molecule, other results behind:

Row | fold induction at 10 µM [1] | SMILES | other results
8 | 3 to 4 | CN(C(=O)c1c(-c2ccc(F)cc2)nc2ncccn12)c1ccc(F)cc1 [Compound no. 22, N,2-bis(4-fluorophenyl)-N-methylimidazo[1,2-a]pyrimidine-3-carboxamide] | inhibition in vivo at 36 mg/kg [2]: 20%; Fold increase in GLP Release [4]: 2.13 fold
9 | 2 to 3 | CN(C(=O)c1c(-c2ccc3c(c2)OCO3)nc2ncccn12)c1ccc(F)cc1 [Compound no. 28, 2-(1,3-benzodioxol-5-yl)-N-(4-fluorophenyl)-N-methylimidazo[1,2-a]pyrimidine-3-carboxamide] | inhibition in vivo at 39 mg/kg ([2]; single oral dose 39 mg/kg): 5%; Fold increase in GLP Release [4]: 2.03 fold
10 | > 4 | CN(C(=O)c1c(-c2cccc(C(F)(F)F)c2)nc2ncccn12)c1ccc(F)cc1 [Compound no. 33, N-(4-fluorophenyl)-N-methyl-2-[3-(trifluoromethyl)phenyl]imidazo[1,2-a]pyrimidine-3-carboxamide] | inhibition in vivo at 41 mg/kg [2]: 20%; EC50 [3]: 155 nM; Fold increase in GLP Release [4]: 1.83 fold
11 | 2 to 3 | CN(C(=O)c1c(-c2cccc(C#N)c2)nc2ncccn12)c1ccc(Cl)cc1 [Compound no. 36, N-(4-chlorophenyl)-2-(3-cyanophenyl)-N-methylimidazo[1,2-a]pyrimidine-3-carboxamide] | inhibition in vivo at 38 mg/kg ([2]; single oral dose 38 mg/kg): 8%
12 | 3 to 4 | CC(C)N(C(=O)c1c(-c2ccc(F)cc2)nc2ncccn12)c1ccc(Cl)cc1 [Compound no. 65, N-(4-chlorophenyl)-2-(4-fluorophenyl)-N-(propan-2-yl)imidazo[1,2-a]pyrimidine-3-carboxamide] | inhibition in vivo at 41 mg/kg [2]: 10%
13 | 3 to 4 | CN(C(=O)c1c(-c2ccc(O)cc2)nc2ncccn12)c1ccc(Cl)cc1 [compound 30, N-(4-chlorophenyl)-2-(4-hydroxyphenyl)-N-methylimidazo[1,2-a]pyrimidine-3-carboxamide] | Fold increase in GLP Release [4]: 1.69 fold
14 | 2 to 3 | CN(C(=O)c1c(-c2ccc(O)c(F)c2)nc2ncccn12)c1ccc(F)cc1 [compound 42, 2-(3-fluoro-4-hydroxyphenyl)-N-(4-fluorophenyl)-N-methylimidazo[1,2-a]pyrimidine-3-carboxamide] | 
15 | 1.5 to 2 | COc1ccc(-c2nc3ncccn3c2C(=O)N(C)c2ccc(F)cc2F)cc1F [compound 43, N-(2,4-difluorophenyl)-2-(3-fluoro-4-methoxyphenyl)-N-methylimidazo[1,2-a]pyrimidine-3-carboxamide] | 
16 | 3 to 4 | COc1ccc(-c2nc3ncccn3c2C(=O)N(C)c2ccc(Cl)cc2)cc1F [compound 44, N-(4-chlorophenyl)-2-(3-fluoro-4-methoxyphenyl)-N-methylimidazo[1,2-a]pyrimidine-3-carboxamide] | 
17 | > 4 | COc1ccc(-c2nc3ncccn3c2C(=O)N(C)c2ccc(F)c(Cl)c2)cc1F [compound 45, N-(3-chloro-4-fluorophenyl)-2-(3-fluoro-4-methoxyphenyl)-N-methylimidazo[1,2-a]pyrimidine-3-carboxamide] | 
